Tests used:
[1] = Particle size and PDI of nucleic acid lipid nanoparticle preparations by dynamic light scattering; format: physicochemical
Outline: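 Size read by DLS after diluting the LNP preparation (approx. 0.04 mg/mL mRNA) in ultrapure water with gentle pipette mixing. The same sample, recovered and diluted further with water, was then used for zeta potential measurement.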

mice = test: In vivo delivery of FLuc-mRNA lipid nanoparticles in mice, in vivo imaging (IVIS)
Outline: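 Mice (n=3) received about 75 μL FLuc-mRNA LNP per mouse intramuscularly (rectus femoris), intravenously (tail vein), intraperitoneally or subcutaneously (back). After injection, D-luciferin (200 μL, 15 mg/mL) was given i.p. 10-15 min before IVIS imaging.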

[2] = DMG-PEG2000:DSPC:Chol:compound 1.40:11.15:38.95:48.50, N/P 30
[3] = IM, DMG-PEG2000:DSPC:Chol:compound 1.40:11.15:38.95:48.50, N/P 30, Fluc-mRNA
[4] = IV, body, DMG-PEG2000:DSPC:Chol:compound 1.40:11.15:38.95:48.50, N/P 30, Fluc-mRNA
[5] = IV, liver, DMG-PEG2000:DSPC:Chol:compound 1.40:11.15:38.95:48.50, N/P 30
[6] = IV, liver, DMG-PEG2000:DSPC:Chol:compound 1.40:11.15:38.95:48.50, N/P 30, Fluc-mRNA
[7] = IV, lung, DMG-PEG2000:DSPC:Chol:compound 1.40:11.15:38.95:48.50, N/P 30
[8] = IV, lung, DMG-PEG2000:DSPC:Chol:compound 1.40:11.15:38.95:48.50, N/P 30, Fluc-mRNA
[9] = IV, spleen, DMG-PEG2000:DSPC:Chol:compound 1.40:11.15:38.95:48.50, N/P 30
[10] = IV, spleen, DMG-PEG2000:DSPC:Chol:compound 1.40:11.15:38.95:48.50, N/P 30, Fluc-mRNA
[11] = DMG-PEG2000:DSPC:Chol:Lipid 1.40:11.15:38.95:48.50, N/P 30, mRNA LNP
[12] = DMG-PEG2000:DSPC:Chol:Lipid 1.50:11.50:52.00:35.00, N/P 18, mRNA LNP
[13] = DMG-PEG2000:DSPC:Chol:Lipid 1.40:11.15:38.95:48.50, N/P 30, IV, liver
[14] = DMG-PEG2000:DSPC:Chol:Lipid 1.40:11.15:38.95:48.50, N/P 30, IV, lung
[15] = DMG-PEG2000:DSPC:Chol:Lipid 1.40:11.15:38.95:48.50, N/P 30, IV, spleen
[16] = DMG-PEG2000:DSPC:Chol:Lipid 1.50:11.50:52.00:35.00, N/P 18, IV, liver
[17] = DMG-PEG2000:DSPC:Chol:Lipid 1.50:11.50:52.00:35.00, N/P 18, IV, lung
[18] = DMG-PEG2000:DSPC:Chol:Lipid 1.50:11.50:52.00:35.00, N/P 18, IV, spleen
[19] = DMG-PEG2000:DSPC:Chol:Lipid 1.40:11.15:38.95:48.50, N/P 18, mRNA LNP
[20] = DMG-PEG2000:DSPC:Chol:compound 1.40:11.15:38.95:48.50, N/P 20
[21] = DMG-PEG2000:DSPC:Chol:Lipid 1.00:16.00:48.00:35.00, N/P 18, mRNA LNP
[22] = DMG-PEG2000:DSPC:Chol:Lipid 1.50:4.00:69.50:25.00, N/P 18, mRNA LNP
[23] = DMG-PEG2000:DSPC:Chol:Lipid 1.50:16.00:17.50:65.00, N/P 45, mRNA LNP
[24] = DMG-PEG2000:DSPC:Chol:Lipid 1.77:14.07:49.16:35.00, N/P 30, mRNA LNP
[25] = DMG-PEG2000:DSPC:Chol:Lipid 1.00:16.00:48.00:35.00, N/P 18, IV, liver
[26] = DMG-PEG2000:DSPC:Chol:Lipid 1.00:16.00:48.00:35.00, N/P 18, IV, lung
[27] = DMG-PEG2000:DSPC:Chol:Lipid 1.00:16.00:48.00:35.00, N/P 18, IV, spleen
[28] = DMG-PEG2000:DSPC:Chol:Lipid 1.50:16.00:17.50:65.00, N/P 45, IV, liver
[29] = DMG-PEG2000:DSPC:Chol:Lipid 1.50:16.00:17.50:65.00, N/P 45, IV, lung
[30] = DMG-PEG2000:DSPC:Chol:Lipid 1.50:16.00:17.50:65.00, N/P 45, IV, spleen

## CCCCCCCC/C=C\CCCCCCCCNC(=O)C(O)CN(CCN(C)CCN(CC(O)C(=O)NCCCCCCCC/C=C\CCCCCCCC)CC(O)C(=O)NCCCCCCCC/C=C\CCCCCCCC)CC(O)C(=O)NCCCCCCCC/C=C\CCCCCCCC (stereo not drawn) [Compound L0299]
[1]; [2]
  PDI: 0.16
  Particle size (nm): 91.76 nm
mice; [3]
  IVIS: 1.92E+06
mice; [4]
  IVIS: 1.55E+07
mice; [5]
  % of organ targeting: 7.28%
mice; [6]
  IVIS: 7.84E+05
mice; [7]
  % of organ targeting: 41.60%
mice; [8]
  IVIS: 4.48E+06
mice; [9]
  % of organ targeting: 51.12%
mice; [10]
  IVIS: 5.50E+06

## CCCCCCCCCCCCNC(=O)C(O)CN(CCCN(CCCCO)CCCN(CC(O)C(=O)NCCCCCCCCCCCC)CC(O)C(=O)NCCCCCCCCCCCC)CC(O)C(=O)NCCCCCCCCCCCC (stereo not drawn) [Compound L0282]
[1]; [11]
  PDI: 0.15 ± 0.02
  Particle size: 85.38 ± 0.31 nm
[1]; [12]
  PDI: 0.18 ± 0.00
  Particle size: 100.32 ± 0.97 nm
mice; DMG-PEG2000:DSPC:Chol:Lipid 1.40:11.15:38.95:48.50, N/P 30, IM, whole body scan
  IVIS: 5.98 × 10^6
mice; DMG-PEG2000:DSPC:Chol:Lipid 1.40:11.15:38.95:48.50, N/P 30, IV, body (whole body scan)
  IVIS: 1.50 × 10^7
mice; [13]
  % of organ targeting: 2.75%
  IVIS: 6.77 × 10^5
mice; [14]
  % of organ targeting: 60.96%
  IVIS: 1.50 × 10^7
mice; [15]
  % of organ targeting: 36.29%
  IVIS: 8.93 × 10^6
mice; DMG-PEG2000:DSPC:Chol:Lipid 1.50:11.50:52.00:35.00, N/P 18, IV, body
  IVIS: 3.77 × 10^6
mice; [16]
  % of organ targeting: 7.18%
  IVIS: 6.44 × 10^5
mice; [17]
  % of organ targeting: 8.27%
  IVIS: 7.41 × 10^5
mice; [18]
  % of organ targeting: 84.55%
  IVIS: 7.58 × 10^6
mice; certain formulations, Table 2
  tissue-targeting specificity (lung vs spleen depending on molar percentage of compound): strong tissue-targeting specificity

## CCCCCCOCOCCCCCCOC(=O)C(O)CN(C)CCCN(C)CCCN(C)CC(O)C(=O)OCCCCCCOCOCCCCCC (stereo not drawn) [Compound L0331]
[1]; [2]
  PDI: 0.06
  Particle size (nm): 122.67 nm
mice; [3]
  IVIS: 3.39E+06
mice; IV, organ not given, DMG-PEG2000:DSPC:Chol:compound 1.40:11.15:38.95:48.50, N/P 30, Fluc-mRNA
  IVIS: 9.27E+05

## CCCCCCCCCCCCNC(=O)C(O)CN(C)CCN(C)CCN(C)CC(O)C(=O)NCCCCCCCCCCCC (stereo not drawn) [Compound L0278]
[1]; [19]
  PDI: 0.23 ± 0.01
  Particle size: 91.75 ± 0.80 nm
mice; DMG-PEG2000:DSPC:Chol:Lipid 1.40:11.15:38.95:48.50, N/P 18, IM, whole body scan
  IVIS: 3.77 × 10^5
mice; DMG-PEG2000:DSPC:Chol:Lipid 1.40:11.15:38.95:48.50, N/P 18, IV, whole body scan
  IVIS: 2.49 × 10^5

## CCCCCCCCCCCCNC(=O)C(O)CN(CCOCCOCCN(CC(O)C(=O)NCCCCCCCCCCCC)CC(O)C(=O)NCCCCCCCCCCCC)CC(O)C(=O)NCCCCCCCCCCCC (stereo not drawn) [Compound L0305]
[1]; [20]
  PDI: 0.18
  Particle size (nm): 109.93 nm
mice; IM, DMG-PEG2000:DSPC:Chol:compound 1.40:11.15:38.95:48.50, N/P 20, Fluc-mRNA
  IVIS: 4.39E+04
mice; IV, body, DMG-PEG2000:DSPC:Chol:compound 1.40:11.15:38.95:48.50, N/P 20, Fluc-mRNA
  IVIS: 8.12E+06
mice; IV, liver, DMG-PEG2000:DSPC:Chol:compound 1.40:11.15:38.95:48.50, N/P 20
  % of organ targeting: 35.21%
mice; IV, liver, DMG-PEG2000:DSPC:Chol:compound 1.40:11.15:38.95:48.50, N/P 20, Fluc-mRNA
  IVIS: 2.14E+06
mice; IV, lung, DMG-PEG2000:DSPC:Chol:compound 1.40:11.15:38.95:48.50, N/P 20
  % of organ targeting: 1.65%
mice; IV, lung, DMG-PEG2000:DSPC:Chol:compound 1.40:11.15:38.95:48.50, N/P 20, Fluc-mRNA
  IVIS: 1.00E+05
mice; IV, spleen, DMG-PEG2000:DSPC:Chol:compound 1.40:11.15:38.95:48.50, N/P 20
  % of organ targeting: 63.14%
mice; IV, spleen, DMG-PEG2000:DSPC:Chol:compound 1.40:11.15:38.95:48.50, N/P 20, Fluc-mRNA
  IVIS: 3.84E+06

## CCCCCCC(CCCCCC)C(=O)OCCCCOC(=O)C(O)CN(CCN(C)CCN(CC(O)C(=O)OCCCCOC(=O)C(CCCCCC)CCCCCC)CC(O)C(=O)OCCCCOC(=O)C(CCCCCC)CCCCCC)CC(O)C(=O)OCCCCOC(=O)C(CCCCCC)CCCCCC (stereo not drawn) [Compound L0297]
[1]; [2]
  PDI: 0.13
  Particle size (nm): 119.00 nm
mice; [3]
  IVIS: 8.34E+07
mice; [4]
  IVIS: 1.64E+08
mice; [5]
  % of organ targeting: 35.19%
mice; [6]
  IVIS: 3.82E+07
mice; [7]
  % of organ targeting: 13.24%
mice; [8]
  IVIS: 1.44E+07
mice; [9]
  % of organ targeting: 51.57%
mice; [10]
  IVIS: 5.59E+07

## CCCCCCCCCCCCNC(=O)C(O)CN(CCCN(CCCCCCO)CCCN(CC(O)C(=O)NCCCCCCCCCCCC)CC(O)C(=O)NCCCCCCCCCCCC)CC(O)C(=O)NCCCCCCCCCCCC (stereo not drawn) [Compound L0274]
[1]; [21]
  PDI: 0.15 ± 0.01
  Particle size: 93.07 ± 0.26 nm
[1]; [22]
  PDI: 0.12 ± 0.00
  Particle size: 88.12 ± 0.68 nm
[1]; [23]
  PDI: 0.47 ± 0.04
  Particle size: 232.87 ± 6.17 nm
[1]; [24]
  PDI: 0.13 ± 0.01
  Particle size: 79.38 ± 0.91 nm
mice; DMG-PEG2000:DSPC:Chol:Lipid 1.00:16.00:48.00:35.00, N/P 18, IV, body
  IVIS: 3.12 × 10^8
mice; [25]
  % of organ targeting: 29.22%
  IVIS: 4.76 × 10^7
mice; [26]
  % of organ targeting: 8.16%
  IVIS: 1.33 × 10^7
mice; [27]
  % of organ targeting: 62.62%
  IVIS: 1.02 × 10^8
mice; DMG-PEG2000:DSPC:Chol:Lipid 1.50:4.00:69.50:25.00, N/P 18, IM, whole body scan
  IVIS: 6.20 × 10^6
mice; DMG-PEG2000:DSPC:Chol:Lipid 1.50:16.00:17.50:65.00, N/P 45, IV, body
  IVIS: 1.52 × 10^8
mice; [28]
  % of organ targeting: 1.10%
  IVIS: 4.17 × 10^6
mice; [29]
  % of organ targeting: 84.18%
  IVIS: 3.19 × 10^8
mice; [30]
  % of organ targeting: 14.72%
  IVIS: 5.58 × 10^7
mice; DMG-PEG2000:DSPC:Chol:Lipid 1.77:14.07:49.16:35.00, N/P 30, IM, whole body scan
  IVIS: 1.23 × 10^7
mice; certain formulations, Table 2
  in vivo delivery efficiency as compared to the benchmark compound SM102: superior in vivo delivery efficiency
  tissue-targeting specificity (lung vs spleen depending on molar percentage of compound): strong tissue-targeting specificity
